Values quoted from earlier work, collected in PMC11187573, “Identification of SARS-CoV-2 Mpro inhibitors through deep reinforcement learning for de novo drug design and computational chemistry approaches” (RSC Medicinal Chemistry, 2024).

Tested on: Mpro
Conditions: ML dataset, Origin COVID_Moonshot; ref COVID Moonshot; cited from earlier work

Compound | IC50
COc1ccc2c(NC(=O)C3CCOc4ccc(Cl)cc43)noc2c1 (stereo not shown) [JAG-UCB-52b62a6f-10] | 57.5 µM
CN(C(=O)Cn1nnc2ccccc21)c1ccc(Oc2ccc(C(F)(F)F)cn2)cc1 [AAR-POS-8a4e0f60-7] | 37.8 µM
CC(C)(C(N)=O)c1ccc(N(Cc2ccsc2)C(=O)Cn2nnc3ccccc32)cc1 [ALP-POS-c0c213c9-6] | 3.17 µM
O=C(Cc1cncc2ccccc12)Nc1cc(Cl)cc(OC2CCC(=O)N2)c1 (stereo not shown) [ERI-UCB-ce40166b-6] | 28.9 µM
Cc1c(N)cncc1NC(=O)Cc1cccc(C#N)c1 | 24.1 µM
O=C(NCCc1cccc(F)c1)C(c1cccnc1)N(C(=O)c1cocn1)c1ccc2ncsc2c1 (stereo not shown) [ALP-POS-ced8ea4d-24] | 60.5 µM
Cc1ccncc1NC(=O)CN1C(=O)COc2ccc(Cl)cc21 | 49.4 µM
O=C(COc1cccc(Cl)c1)Nc1cncc2ccccc12 [ALP-POS-f13221e1-2] | 8.59 µM
O=C(Cc1ccc(Cl)c(Cl)c1)Nc1cncc2ccccc12 [MAT-POS-23a8a11a-1, O=C(Cc1ccc(Cl)c(Cl)c1)Nc1cncc2ccccc12, reference compound] | 0.196 µM
O=C(NCCc1cccc(F)c1)C(c1cccnc1)N(C(=O)c1cnc[nH]1)c1ccc(OC2CCOC2)cc1 (stereo not shown) [ALP-POS-e980f4ea-32] | 25.8 µM
CC(=O)NC(C)c1cc(F)cc(Cl)c1 (stereo not shown) [DAV-CRI-3edb475e-6, Mpro-x10172] | 24.4 µM
O=C(Nc1cncc2ccccc12)C1CCOc2c1ccc(Cl)c2Cl (stereo not shown) [ALP-POS-869ac754-2] | 3.31 µM
Cc1ccncc1NC(=O)Cc1cc(Cl)cc(OCc2nnc(C3CCCCC3)o2)c1 [CHO-MSK-6e55470f-7] | 17 µM
COc1ccc2nnn(CC(=O)N(Cc3ccccn3)c3ccc(C4CCNCC4)cc3)c2c1 [ALP-POS-c0c213c9-1] | 35.5 µM
CN(C)c1ccc(N(Cc2ccccc2)C(=O)Cn2nnc3ccccc32)cc1 [ALP-POS-6d04362c-1] | 3.31 µM
O=C(C[C@@]1(C(=O)Nc2cncc3ccccc23)CCOc2ccc(Cl)cc21)N1CCN(C2CCOC2)CC1 (stereo partly shown) [ALP-POS-2da19ca7-2] | 46.5 µM
O=C(NCCc1cccc(F)c1)C(c1cccnc1)N(C(=O)c1c[nH]cn1)c1ccc(C2COC2)cc1 (stereo not shown) [BRU-THA-92256091-80] | 22.7 µM
CC(=O)NC(C(=O)Nc1cncc2ccccc12)c1ccc(Cl)c(Cl)c1 (stereo not shown) [MAT-POS-1f3f1a6f-3] | 4.05 µM
CC(C)(C)c1ccc(N(C(=O)c2c[nH]c(=O)[nH]2)C(C(=O)NCCc2cccc(F)c2)c2cccnc2)cc1 (stereo not shown) [ALP-POS-305f6ec3-52] | 15.9 µM
CCCCc1nc(-c2nccn2Cc2ccoc2)c[nH]1 [MAT-POS-ea426761-53] | 14.3 µM
COc1ncncc1C(C(=O)NCCc1cccc(F)c1)N(C(=O)c1cocn1)c1ccc(C(C)(C)C)cc1 (stereo not shown) [ALP-POS-d0876c20-19] | 8.43 µM
O=C(Cc1cc(F)cc(Cl)c1)Nc1cncc2ccccc12 [RAL-THA-2d450e86-14] | 0.383 µM
OC(Cc1cccc(Cl)c1)Cn1cncn1 (stereo not shown) [MAT-POS-6da3605a-2] | 82.2 µM
CCC(=O)Nc1ccc(N(Cc2cscn2)C(=O)Cn2nnc3ccccc32)cc1 [ALP-POS-87c86d55-2] | 35.5 µM
O=C(Cc1cncc2ccccc12)N1CCOc2ccc(Cl)cc21 [JOH-UNI-ea1df7a8-1] | 4.85 µM

Compound | IC50
CSc1ccc(CN(C(=O)c2ccco2)C(C(=O)NCCc2cccc(F)c2)c2cccnc2)cc1C#N (stereo not shown) [ALP-POS-b0bc6a46-20] | 54.9 µM
O=C1CC(C(=O)N2CCN(c3cccc(Cl)c3)CC2)c2ccccc2N1 (stereo not shown) [MAT-POS-450cb4f9-1] | 20.9 µM
Cc1cc(C)c(C)c(S(=O)(=O)N2CCN(C(=O)c3cc(=O)[nH]c4ccccc34)CC2)c1C [MAT-POS-916a2c5a-3] | 6.11 µM
COc1ccc(NC(=O)C(c2cccnc2)N(C(=O)c2cocn2)c2ccc(C(C)(C)C)cc2)cn1 (stereo not shown) [ALP-POS-88a7a97e-41] | 5.37 µM
O=C(Nc1cnccc1CO)[C@@H]1COc2ccc(Cl)cc21 [JAG-UCB-a3ef7265-3] | 30.4 µM
Cc1ccncc1NC(=O)CN1CCC(C)CC1 | 49.2 µM
CNC(=O)c1cc(Cl)cc(CC(=O)Nc2cnccc2C)c1 [RAL-THA-6b94ceba-7] | 47.7 µM
CC(C)(C)c1ccc(N(C(=O)c2c[nH]c(=O)s2)C(C(=O)NCCc2cccc(F)c2)c2cccnc2)cc1 (stereo not shown) [ALP-POS-305f6ec3-2] | 29.1 µM
N#Cc1cc(Cl)cc(NC(=O)Nc2cccnc2)c1 [WAR-XCH-eb7b662f-2] | 99 µM
O=C(Cc1cc(Cl)cc(Oc2cccc(=O)[nH]2)c1)Nc1cncc2ccccc12 [MAT-POS-9ff17035-2] | 1.98 µM
Cc1ccncc1NC(=O)C(C)c1cccc(Cl)c1 (stereo not shown) | 19.6 µM
Cn1cnc(C(=O)N(c2ccc(C(C)(C)C)cc2)C(C(=O)NCCc2cccc(F)c2)c2cccnc2)n1 (stereo not shown) [ALP-POS-305f6ec3-55] | 74.2 µM
O=C(Nc1cnccc1Cl)c1cc(Cl)ccc1O [CHR-SOS-7098f804-10] | 24.2 µM
O=C(NCc1cccs1)[C@@H](c1ccccc1)N1Cc2ccccc2C1=O [LON-WEI-f8a636e2-1] | 90.7 µM
O=C(Cc1cccc(Cl)c1)Nc1cncc2c1OCCC2 [EDJ-MED-976da9a6-1] | 10.9 µM
Cc1ccncc1NC(=O)Cc1cc(Cl)cc(-c2ccc(C3(C)CCO3)cc2)c1 (stereo not shown) [MAT-POS-f42f3716-5] | 12.1 µM
COCCNC(=O)C(c1cccnc1)N(C(=O)c1cocn1)c1ccc(C(C)(C)C)cc1 (stereo not shown) [ALP-POS-88a7a97e-31] | 8.46 µM
CC(C)c1ccncc1NC(=O)Cc1cccc(Cl)c1 [MAT-POS-bb423b95-5] | 22.9 µM
CC(C)(C)c1ccc(N(C(=O)c2cn[nH]c2)C(C(=O)NCCc2cccc(F)c2)c2cccnc2)cc1 (stereo not shown) [MAT-POS-f2460aef-5] | 5.33 µM
Cc1ccc(S(=O)(=O)CNC(=O)C(c2cccnc2)N(C(=O)c2cocn2)c2ccc(C(C)(C)C)cc2)cc1 (stereo not shown) [ALP-POS-88a7a97e-42] | 62.9 µM
CC(C)(C)c1ccc(N(C(=O)C2CCCO2)C(C(=O)NCCc2cccc(F)c2)c2cccnc2)cc1 (stereo not shown) [ALP-POS-02c6a514-17] | 5.56 µM
O=C(Cc1cccnc1)Nc1cccc(OC2CC(=O)N2)c1 (stereo not shown) | 88.3 µM
C[C@H]1C[C@@H](C(=O)Nc2cncc3ccccc23)c2cc(Cl)ccc2O1 [EDJ-MED-e4b030d8-3] | 32.7 µM
O=C(NCCc1cccc(F)c1)C(c1cccnc1)N(C(=O)c1cocn1)c1ccc(OC2CCOC2)cc1 (stereo not shown) [ALP-POS-ced8ea4d-32] | 6.32 µM
CCOC(=O)c1ncoc1CNC(=O)C(c1cccnc1)N(C(=O)c1cocn1)c1ccc(C(C)(C)C)cc1 (stereo not shown) [ALP-POS-88a7a97e-49] | 5.88 µM

Compound | IC50
CC(C)(C)c1ccc(N(C(=O)c2ncc[nH]2)C(C(=O)NCCc2cccc(F)c2)c2cccnc2)cc1 (stereo not shown) [ALP-POS-02c6a514-46] | 5.29 µM
O=C(Nc1n[nH]c2ccnc(Br)c12)C1CCOc2ccc(Cl)cc21 (stereo not shown) [JAG-UCB-52b62a6f-15] | 86.8 µM
O=C(Cn1nnc2ccccc21)N(Cc1cccc(Cl)c1)c1ccc(N2CCCCC2)cc1 [CHO-MSK-00c5269a-5] | 4.83 µM
O=C1CC(C(=O)Nc2cncc3ccccc23)c2cc(Cl)cc(Cl)c2N1 (stereo not shown) [MAT-POS-f39f51fd-1] | 2.74 µM
Cc1ccc(N(Cc2cscn2)C(=O)Cc2cncc3ccccc23)cc1 [ALP-POS-c3a96089-1] | 10.9 µM
CCCC(C(=O)Nc1cnccc1C)c1cccc(Cl)c1 (stereo not shown) | 11.4 µM
O=C(Nc1cncc2ccccc12)C1CCN(Cc2ccn[nH]2)c2ccc(Cl)cc21 (stereo not shown) [RAL-THA-8416115c-6] | 0.803 µM
COc1ccccc1OCCNC(=O)c1cc(=O)[nH]c2ccccc12 | 5.35 µM
O=C(Cc1cccc(Cl)c1)Nn1cnc2ccccc21 | 6.28 µM
O=C(Nc1n[nH]c2ccncc12)C1CCOc2ccc(Cl)cc21 (stereo not shown) [JAG-UCB-52b62a6f-16] | 70.3 µM
O=C(NCCc1cccc(F)c1)C(c1cccnc1)N(C(=O)c1ccco1)C1CCN(c2ccccc2)CC1 (stereo not shown) [ALP-POS-b0bc6a46-28] | 79.6 µM
O=C(Cc1cc(Cl)cc(-c2nnn[nH]2)c1)Nc1cncc2ccccc12 [MAT-POS-281d2ee9-3] | 21.4 µM
O=C(Cc1cccc(Cl)c1)Nc1cnccc1-c1ccccc1 | 33 µM
CC(C)(C)c1ccc(N(C(=O)c2cc(=O)[nH][nH]2)C(C(=O)NCCc2cccc(F)c2)c2cccnc2)cc1 (stereo not shown) [ALP-POS-305f6ec3-59] | 39.7 µM
COc1ccc(N(C(=O)c2cocn2)C(C(=O)NCCc2cccc(F)c2)c2cccnc2)cc1 (stereo not shown) [ALP-POS-ced8ea4d-19] | 22.2 µM
Cc1ccncc1NC(=O)Cc1cc(Cl)cc(NS(C)(=O)=O)c1 [WIL-MOD-03b86a88-5] | 21.8 µM
CNC(=O)C1(CC(=O)Nc2cncc3ccccc23)CCOc2ccc(Cl)cc21 (stereo not shown) [MAT-POS-78e1d523-2] | 30.7 µM
O=C(NCCc1cccc(F)c1)C(c1cccnc1)N(C(=O)c1cocn1)c1cnc(C2CCC2)nc1 (stereo not shown) [ALP-POS-ced8ea4d-63] | 69.1 µM
O=C(c1cc(=O)[nH]c2ccccc12)N1CCN(c2cccc(Cl)c2)C(=O)C1 | 12.7 µM
O=C(NCCc1cccc(F)c1)C(c1cccnc1)N(C(=O)c1c[nH]cn1)c1ccc(OC(F)F)cc1 (stereo not shown) [BRU-THA-92256091-16] | 22.1 µM
Cc1ccncc1NC(=O)Cc1cc(Cl)cc(CNS(C)(=O)=O)c1 [RAL-THA-6b94ceba-12] | 24.4 µM
COC(=O)[C@@H]1CC[C@H](NC(=O)C(c2cccnc2)N(C(=O)c2cocn2)c2ccc(C(C)(C)C)cc2)C1 (stereo partly shown) [ALP-POS-88a7a97e-6] | 2.38 µM
O=C(Nc1cncc2ccccc12)C1CCNc2cc(Cl)c(Cl)cc21 (stereo not shown) [ALP-UNI-3735e77e-4] | 0.154 µM

Same assay, conditions: ML dataset, Origin ChEMBL; ref ChEMBL; cited from earlier work

Compound | IC50
O=S(=O)(Cc1[nH]c(-c2ccc(Cl)s2)c[s+]1)c1cccs1 [CHEMBL215733] | 18 µM
O=C(Oc1cncc(Cl)c1)c1cc2ccccc2o1 [CHEMBL426898, O=C(c1cc(cccc2)c2o1)Oc1cc(Cl)cnc1, reference compound] | 0.17 µM
Cc1ccc(-n2sc(=O)n(Cc3ccc(F)cc3)c2=O)cc1 [CHEMBL1917204, Cc(cc1)ccc1N(C(N1Cc(cc2)ccc2F)=O)SC1=O, reference compound] | 0.19 µM
Nc1ncc(S(=O)(=O)c2ccc(Cl)cc2)c(N)n1 [CHEMBL213581] | 6 µM
O=C(O)c1ccc(S(=O)(=O)c2cc(Br)c(O)c(Br)c2)cc1 [CHEMBL212240] | 16 µM
Cn1sc(=O)n(Cc2ccccc2)c1=O [CHEMBL284861, CN(C(N1Cc2ccccc2)=O)SC1=O, reference compound] | 0.14 µM
